# Measured values from US20080242663A1, “NOVEL PYRIMIDINE DERIVATIVES 698” (ASTRAZENECA AB, priority 2007, published 2008).
# pIC50: −log10 of the molar value.
# Biological target: T1, recombinant EphB4 (Homo sapiens, UniProt P54760)
# T1 construct: amino acids 563-987; Swiss-Prot Acc; No. P54760; purchased ProQinase GmbH 0178-0000-3
# T1 sequence (P54760 563-987): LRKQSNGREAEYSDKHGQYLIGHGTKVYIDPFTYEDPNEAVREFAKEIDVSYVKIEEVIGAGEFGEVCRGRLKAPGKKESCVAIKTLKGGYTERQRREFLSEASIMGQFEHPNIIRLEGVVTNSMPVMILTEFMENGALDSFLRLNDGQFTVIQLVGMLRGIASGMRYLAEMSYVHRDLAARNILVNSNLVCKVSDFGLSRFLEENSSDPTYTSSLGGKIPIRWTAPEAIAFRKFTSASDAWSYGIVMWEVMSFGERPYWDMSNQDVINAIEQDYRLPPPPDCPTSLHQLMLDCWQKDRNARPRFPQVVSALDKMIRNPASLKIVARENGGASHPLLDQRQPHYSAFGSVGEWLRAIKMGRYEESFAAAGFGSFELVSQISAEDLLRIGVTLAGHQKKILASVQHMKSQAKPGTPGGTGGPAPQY
# Assay: In vitro EphB4 enzyme assay (Alphascreen)
# Type: biochemical
# Procedure, shortened: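 Recombinant EphB4 phosphorylated biotin-poly-GAT with Mg-ATP for 1 hr at room temperature; EDTA stop, then Alphascreen donor/acceptor (anti-phosphotyrosine) beads for 20 hrs in the dark. After minimum subtraction, signal plotted against compound concentration to derive IC50.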
row,Structure (SMILES),pIC50
1,"CCN(c1ccnc(Nc2cc(N3CCOCC3)cc(N3CCOCC3)c2)n1)c1cc(OC)ccc1C [Example 22.3, N-(3,5-dimorpholin-4-ylphenyl)-N′-ethyl-N′-(5-methoxy-2-methyl-phenyl)pyrimidine-2,4-diamine]",5.92
2,"COc1ccc(C)c(N(CCO)c2ccnc(Nc3cc(N4CCOCC4)cc(N4CCOCC4)c3)n2)c1 [Example 22.4, 2-[[2-[(3,5-dimorpholin-4-ylphenyl)amino]pyrimidin-4-yl]-(5-methoxy-2-methyl-phenyl)amino]ethanol]",6.10
3,"CN(c1cccc(Cl)c1)c1ccnc(Nc2cc(N3CCOCC3)cc(N3CCC(O)CC3)c2)n1 [Example 23, 1-[3-({4-[(3-chlorophenyl)(methyl)amino]pyrimidin-2-yl}amino)-5-morpholin-4-ylphenyl]piperidin-4-ol]",8.77
4,"CN1CCN(c2cc(Nc3nccc(N(C)c4cccc(Cl)c4)n3)cc(N3CCOCC3)c2)CC1 [Example 24, N4-(3-chlorophenyl)-N4-methyl-N2-[3-(4-methylpiperazin-1-yl)-5-morpholin-4-ylphenyl]pyrimidine-2,4-diamine]",9.24

# The next lines start with the values.
row,pIC50,Structure (SMILES)
1,7.28,"Cc1cccc(CO)c1N(C)c1ccnc(Nc2cc(N3CCOCC3)cc(N3CCOCC3)c2)n1 [Example 25.1, (2-((2-(3,5-dimorpholinophenylamino)pyrimidin-4-yl)(methyl)amino)-3-methylphenyl)methanol]"
2,7.11,"COc1cccc(C)c1N(C)c1ccnc(Nc2cc(N3CCOCC3)cc(N3CCOCC3)c2)n1 [Example 25.2, N2-(3,5-dimorpholinophenyl)-N4-(2-methoxy-6-methylphenyl)-N4-methylpyrimidine-2,4-diamine]"
3,7.94,"CN(c1ccnc(Nc2cc(N3CCOCC3)cc(N3CCOCC3)c2)n1)c1cc(CO)ccc1F [Example 25.3, (3-((2-(3,5-dimorpholinophenylamino)pyrimidin-4-yl)(methyl)amino)-4-fluorophenyl)methanol]"
4,7.94,"CN(c1ccnc(Nc2cc(N3CCOCC3)cc(N3CCOCC3)c2)n1)c1cccc(CO)c1F [Example 25.4, (3-((2-(3,5-dimorpholinophenylamino)pyrimidin-4-yl)(methyl)amino)-2-fluorophenyl)methanol]"
5,6.90,"CC(=O)c1ccc(C)c(N(C)c2ccnc(Nc3cc(N4CCOCC4)cc(N4CCOCC4)c3)n2)c1 [Example 25.5, 1-(3-((2-(3,5-dimorpholinophenylamino)pyrimidin-4-yl)(methyl)amino)-4-methylphenyl)ethanone]"
6,8.10,"COc1ccc(F)c(N(C)c2ccnc(Nc3cc(N4CCOCC4)cc(N4CCOCC4)c3)n2)c1 [Example 25.6, N2-(3,5-dimorpholinophenyl)-N4-(2-fluoro-5-methoxyphenyl)-N4-methylpyrimidine-2,4-diamine]"
7,7.99,"COc1ccc(CO)c(N(C)c2ccnc(Nc3cc(N4CCOCC4)cc(N4CCOCC4)c3)n2)c1 [Example 25.7, (2-((2-(3,5-dimorpholinophenylamino)pyrimidin-4-yl)(methyl)amino)-4-methoxyphenyl)methanol]"
8,8.19,"CN(c1ccnc(Nc2cc(N3CCOCC3)cc(N3CCOCC3)c2)n1)c1cc(Cl)ccc1CO [Example 25.8, (4-chloro-2-((2-(3,5-dimorpholinophenylamino)pyrimidin-4-yl)(methyl)amino)phenyl)methanol]"
